According to US20120196854A1, “PHARMACEUTICAL COMPOSITION COMPRISING AROMATIC HETEROCYCLIC COMPOUND” (Kyowa Hakko Kirin Co., Ltd., priority 2009, published 2012):

Tests used:
human H-PGDS = target: T1, human H-PGDS (Homo sapiens, UniProt O60760); assay: H-PGDS inhibitory activity (Prostaglandin D Synthase Inhibitor Screening Assay Kit); type: biochemical; conditions: at a concentration of 1 μmol/L; read-out: H-PGDS inhibitory rate
T1 construct: purchased Cayman Chemical 10006593
Experimental: The H-PGDS inhibitory activity of Compound (I) was calculated according to the following protocol attached to Prostaglandin D Synthase Inhibitor Screening Assay Kit (Cat. No. 10006595, Cayman Chemical, Ann Arbor, Mich., USA).
(§1) First, to a 96-well round-bottom plate (Cat. No. 3882-096, Asahi Techno Glass, Chiba), 60 μL/well of an enzyme assay buffer (0.1 mol/L Tris-HCl, pH 8.0), 10 μL/well of a human H-PGDS [Cat. No. 10006593 (human), Cayman Chemical, Ann Arbor, Mich., USA] at a final concentration of 0.125 μg/mL, 10 μL/well of reduced glutathione at a final concentration of 1 mmol/L, and 10 μL/well of Compound (I) diluted with the enzyme assay buffer were added and lightly mixed. The plate was allowed to stand at room temperature for 10 minutes, and then 10 μL/well of prostaglandin H2(PGH2) (Cat. No. 17020, Cayman Chemical) at a final concentration of 50 μmol/L was added thereto to start enzyme reaction. The reaction was allowed to proceed with mixing by a plate mixer for 1 minute. After the enzyme reaction, 10 μL/well of a 4 mg/mL FeCl2-HCl solution prepared by dissolving FeCl2 in 1 mol/L hydrochloric acid was added to stop the reaction and reduce PGH2 simultaneously. The enzyme reaction solution (100 μL/well) was transferred to a 96-well UV-Star half area plate (Cat. No. 675801, Greiner, Frickenhausen, Germany), and measured for absorbance at 232 nm using a microplate reader Power Wave (BioTek Instrument Inc., Winooski, Vt., USA).
The H-PGDS inhibitory activity (inhibitory rate) of Compound (I) was calculated by the following formula.
The H-PGDS inhibitory activity of Compound 133 was calculated according to the following protocol attached to Prostaglandin D Synthase Inhibitor Screening Assay Kit (Cat. No. 10006595, Cayman Chemical, Ann Arbor, Mich., USA).
as §1, with “133” for “(I)”
The H-PGDS inhibitory activity (inhibitory rate) of Compound 133 was calculated according to the method in Test Example 1.

[1] = tested on: antigen-induced nasal congestion in rats; assay: Effect on antigen-induced nasal congestion in rats; type: in vivo, rat; conditions: 10 mg/kg orally, 1 hour before nasal antigen; OVA-sensitized BN rats
Experimental: Six-week-old male BN/CrljCrlj SPF/VAF rats were purchased from Charles River Japan (Hino, Kanagawa) and used for experiments. Equal amounts of a 0.4 mg/mL ovalbumin/saline solution (OVA: Grade III, Cat. No. A-5378, Sigma-Aldrich, St. Louis, Mo., USA) and a 20 mg/mL suspension of aluminum hydroxide (alum: Cat. No. 014-01925, Wako Pure Chemical Industries) in saline were mixed to give a sensitizing fluid. First, a suspension of inactivated killed pertussis bacteria (Cat. No. 15330-91, Nacalai Tesque, Tokyo) was doubly diluted with saline. The diluted suspension was subcutaneously administered on the back of each rat at a dose of 0.1 mL (containing 10 billion bacterial cells) per rat, and immediately after that, the sensitizing fluid was intraperitoneally administered at a dose of 1 mL per rat. […]
The nasal congestion was evaluated based on the elevation of the intranasal pressure determined in the following manner. […] The pressure inside the nasal cavity was detected using a pressure transducer branched from the end of the cannula for measurement, and analyzed using Win-PULMOS-III (M.I.P.S. Inc., Osaka). The pressure inside the nasal cavity was measured for 3 minutes immediately after the connection to the cannula for measurement and the artificial ventilator, and the data was calculated for a 3-minute average.

T1 sequence (O60760 whole entry): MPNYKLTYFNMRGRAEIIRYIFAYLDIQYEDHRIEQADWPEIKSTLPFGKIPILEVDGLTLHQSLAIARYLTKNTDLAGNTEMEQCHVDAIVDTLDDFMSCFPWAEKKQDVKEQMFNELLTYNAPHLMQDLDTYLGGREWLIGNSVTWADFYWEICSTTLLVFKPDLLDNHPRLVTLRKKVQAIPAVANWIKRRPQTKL

O=C(O)c1cc(-c2ccco2)nc2ccc3nn(-c4ccccc4)nc3c12 [Compound 133, 7-(furan-2-yl)-2-phenyl-2H-[1,2,3]triazolo[4,5-f]quinoline-9-carboxylic acid]
inhibition at 1 µM (human H-PGDS): 73% | inhibition of antigen-induced nasal congestion (intranasal pressure) [1]: 55%
